From patent publication US9302999B2, “Substituted triazoles as herbicides” (E. I. DU PONT DE NEMOURS AND COMPANY, priority 2012, dated 2016)
Read-outs that look alike come from different tables or passages of the source.

Assays:
Assay type in all cases: in vivo
[1] = system: foxtail, giant (giant foxtail, Setaria faberii); assay: Test A pre-/postemergence: foxtail, giant; conditions: for pest or weed control at 125 g/ha / pest or weed control at 500 g/ha: Setaria faberi, 240 h
Outline: (§1)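 Injury is scored visually on a scale where 0 means no effect and 100 complete control, comparing treated with untreated plants after approximately ten greenhouse days. Both preemergence and postemergence applications are made at the same time.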

[2] = system: velvetleaf (Abutilon theophrasti); assay: Test A pre-/postemergence: velvetleaf; conditions: for pest or weed control at 125 g/ha / pest or weed control at 500 g/ha: Abutilon theophrasti, 240 h
Outline: as §1

[3] = system: wheat (Triticum aestivum); assay: Test A pre-/postemergence: wheat; conditions: for plant injury at 125 g/ha / plant injury at 500 g/ha: Triticum aestivum, 240 h
Outline: as §1

[4] = system: corn (Zea mays); assay: Test A pre-/postemergence: corn
Outline: as §1

[5] = system: sedge, umbrella (small-flower umbrella sedge Cyperus difformis); assay: Test B flooded paddy: sedge, umbrella; conditions: Flood; 250 g ai/ha; applied to paddy water at 2-leaf stage; visually evaluated after 13 to 15 days
Outline: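 Greenhouse assay lasting 13 to 15 days. Treatment was into water flooding pots 3 cm deep, at the 2-leaf stage, with that level sustained afterwards. Scores compare treated with control plants visually, 100 denoting complete control and 0 no effect; a dash marks no test result.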

[6] = system: winter wheat (Triticum aestivum); assay: Test C pre-/postemergence: winter wheat
Outline: (§2)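 Visual injury scored 0–100 (100 = complete control) against untreated controls after 13–15 greenhouse days. Surfactant-containing solvent formulations applied either to soil after sowing (loam/sand) or over 1- to 4-leaf plants, 2–18 cm tall.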

[7] = system: nutsedge, yellow (yellow nutsedge, Cyperus esculentus); assay: Test C pre-/postemergence: nutsedge, yellow
Outline: as §2

[8] = system: pigweed (Amaranthus retroflexus); assay: Test C pre-/postemergence: pigweed
Outline: as §2

[9] = system: chickweed (common chickweed, Stellaria media); assay: Test C postemergence: chickweed
Outline: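 Plants at the 1- to 4-leaf stage (2 to 18 cm tall), grown in pots of peat moss/vermiculite planting medium, received postemergence applications of the formulated test chemicals. After 13 to 15 days in a greenhouse, injury was scored visually versus controls from 0 (no effect) to 100 (complete control).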

[10] = Postemergence, 125 g ai/ha, 0 to 100 scale, 0 is no effect, 100 is complete control
[11] = Postemergence, 500 g ai/ha, visual rating on 0 to 100 scale (0 no effect, 100 complete control), approximately ten days
[12] = Preemergence, 125 g ai/ha, 0 to 100 scale where 0 is no effect and 100 is complete control
[13] = Preemergence, 500 g ai/ha, 0 to 100 scale (0 no effect, 100 complete control)
[14] = Postemergence, 31 g ai/ha, scale 0 to 100 (0 no effect, 100 complete control)
[15] = Postemergence, 62 g ai/ha, scale 0 to 100 (0 no effect, 100 complete control)
[16] = Postemergence, 125 g ai/ha, scale 0 to 100, 0 no effect, 100 complete control
[17] = Postemergence, 250 g ai/ha, scale 0 to 100
[18] = Preemergence, 62 g ai/ha, scale of 0 to 100, 0 is no effect, 100 is complete control
[19] = Preemergence, 125 g ai/ha, scale 0 to 100, 0 no effect, 100 complete control
[20] = Preemergence, 250 g ai/ha, scale 0 to 100, 0 no effect, 100 complete control
[21] = Preemergence, 31 g ai/ha, scale of 0 to 100, 0 is no effect, 100 is complete control
[22] = 31 g ai/ha, scale 0 to 100 (0 no effect, 100 complete control)
[23] = 62 g ai/ha, scale 0 to 100 (0 no effect, 100 complete control)
[24] = 125 g ai/ha, scale 0 to 100, 0 no effect, 100 complete control
[25] = Postemergence, 250 g ai/ha, scale 0 to 100 (0 no effect, 100 complete control)
[26] = Preemergence, 31 g ai/ha, scale 0 (no effect) to 100 (complete control)
[27] = Preemergence, 62 g ai/ha, scale 0 to 100, 0 no effect, 100 complete control

## Cc1nn(-c2ccc(C(F)(F)F)c(F)c2)nc1Oc1ccnc(C(F)(F)F)c1 [Compound 148]
[1]; [10]
  Foxtail, Giant plant response rating: 80
[1]; [11]
  Foxtail, Giant plant response rating: 80
[1]; [12]
  Plant response rating, Foxtail, Giant: 100
[1]; [13]
  Plant response rating, Foxtail, Giant: 100
[2]; [10]
  Plant response rating, Velvetleaf: 100
[2]; [12]
  Plant response rating, Velvetleaf: 20
[2]; [13]
  Plant response rating, Velvetleaf: 70
[3]; [10]
  Plant response rating, Wheat: 20
[3]; [11]
  Wheat plant response rating: 40
[3]; [12]
  Plant response rating, Wheat: 30
[3]; [13]
  Plant response rating, Wheat: 50
[4]; [10]
  Corn plant response rating: 20
[4]; [11]
  Corn plant response rating: 40
[4]; [12]
  Plant response rating, Corn: 10
[4]; [13]
  Plant response rating, Corn: 20
[5]
  Plant response rating, Sedge, Umbrella (0 to 100 scale, 0 is no effect, 100 is complete control): 85
[6]; [14]
  Plant response rating, Wheat: 20
[6]; [15]
  Plant response rating, Wheat: 25
[6]; [16]
  Plant response rating, Wheat: 40
[6]; [17]
  Plant response rating, Wheat: 40
[6]; [18]
  Plant response rating, Wheat: 5
[6]; [19]
  Plant response rating, Wheat: 30
[6]; [20]
  Plant response rating, Wheat: 35
[7]; [14]
  Plant response rating, Nutsedge, Yellow: 10
[7]; [15]
  Plant response rating, Nutsedge, Yellow: 10
[7]; [16]
  Plant response rating, Nutsedge, Yellow: 15
[7]; [17]
  Plant response rating, Nutsedge, Yellow: 15
[7]; [21]
  Plant response rating, Nutsedge, Yellow: 0
[7]; [18]
  Plant response rating, Nutsedge, Yellow: 5
[7]; [19]
  Plant response rating, Nutsedge, Yellow: 5
[8]; [14]
  Plant response rating, Pigweed: 65
[8]; [15]
  Plant response rating, Pigweed: 98
[8]; [16]
  Plant response rating, Pigweed: 98
[8]; [17]
  Plant response rating, Pigweed: 98
[8]; [21]
  Plant response rating, Pigweed: 100
[8]; [18]
  Plant response rating, Pigweed: 100
[8]; [19]
  Plant response rating, Pigweed: 100
[8]; [20]
  Plant response rating, Pigweed: 100
[9]; [22]
  Plant response rating, Chickweed: 75
[9]; [23]
  Plant response rating, Chickweed: 75
[9]; [24]
  Plant response rating, Chickweed: 90
[9]; 250 g ai/ha, scale 0 to 100
  Plant response rating, Chickweed: 98

## CCOc1nn(-c2ccc(F)cc2)nc1Cc1ccnc(C(F)(F)F)c1 [Compound 196, 4-[[5-ethoxy-2-(4-fluorophenyl)-2H-1,2,3-triazol-4-yl]methyl]-2-(trifluoromethyl)pyridine]
[1]; post-emergence, Postemergence, 125 g ai/ha, 0 to 100 scale, 0 is no effect, 100 is complete control, read-out: Plant response rating, Foxtail, Giant
  pest or weed control at 125 g/ha: 90%
[1]; post-emergence, Postemergence, 500 g ai/ha, 0 to 100 scale, 0 is no effect, 100 is complete control, read-out: Foxtail, Giant plant response rating
  pest or weed control at 500 g/ha: 90%
[1]; pre-emergence, Preemergence, 125 g ai/ha, 0 to 100 scale where 0 is no effect and 100 is complete control, read-out: Plant response rating, Foxtail, Giant
  pest or weed control at 125 g/ha: 100%
[1]; pre-emergence, Preemergence, 500 g ai/ha, 0 to 100 scale (0 no effect, 100 complete control), read-out: Plant response rating, Foxtail, Giant
  pest or weed control at 500 g/ha: 100%
[2]; post-emergence, Postemergence, 125 g ai/ha, 0 to 100 scale, 0 is no effect, 100 is complete control, read-out: Plant response rating, Velvetleaf
  pest or weed control at 125 g/ha: 100%
[2]; post-emergence, Postemergence, 500 g ai/ha, 0 to 100 scale, 0 is no effect, 100 is complete control, read-out: Velvetleaf plant response rating
  pest or weed control at 500 g/ha: 100%
[2]; pre-emergence, Preemergence, 125 g ai/ha, 0 to 100 scale where 0 is no effect and 100 is complete control, read-out: Plant response rating, Velvetleaf
  pest or weed control at 125 g/ha: 80%
[2]; pre-emergence, Preemergence, 500 g ai/ha, 0 to 100 scale (0 no effect, 100 complete control), read-out: Plant response rating, Velvetleaf
  pest or weed control at 500 g/ha: 100%
[3]; post-emergence, Postemergence, 125 g ai/ha, 0 to 100 scale, 0 is no effect, 100 is complete control, read-out: Plant response rating, Wheat
  plant injury at 125 g/ha: 50%
[3]; post-emergence, Postemergence, 500 g ai/ha, 0 to 100 scale, 0 is no effect, 100 is complete control, read-out: Wheat plant response rating
  plant injury at 500 g/ha: 70%
[3]; pre-emergence, Preemergence, 125 g ai/ha, 0 to 100 scale where 0 is no effect and 100 is complete control, read-out: Plant response rating, Wheat
  plant injury at 125 g/ha: 50%
[3]; pre-emergence, Preemergence, 500 g ai/ha, 0 to 100 scale (0 no effect, 100 complete control), read-out: Plant response rating, Wheat
  plant injury at 500 g/ha: 70%
[4]; Zea mays, post-emergence, 240 h, Postemergence, 125 g ai/ha, 0 to 100 scale, 0 is no effect, 100 is complete control
  Corn plant response rating (crop injury, 0 = no effect, 100 = complete kill) at 125 g/ha: 70%
[4]; Zea mays, post-emergence, 240 h, Postemergence, 500 g ai/ha, 0 to 100 scale, 0 is no effect, 100 is complete control, read-out: Corn plant response rating
  plant injury at 500 g/ha: 80%
[4]; Zea mays, pre-emergence, 240 h, Preemergence, 125 g ai/ha, 0 to 100 scale where 0 is no effect and 100 is complete control
  Corn plant response rating (crop injury, 0 = no effect, 100 = complete kill) at 125 g/ha: 30%
[4]; Zea mays, pre-emergence, 240 h, Preemergence, 500 g ai/ha, 0 to 100 scale (0 no effect, 100 complete control)
  Corn plant response rating (crop injury, 0 = no effect, 100 = complete kill) at 500 g/ha: 50%
[5]
  Plant response rating, Sedge, Umbrella (0 to 100 scale, 0 is no effect, 100 is complete control): 100
[6]; [14]
  Plant response rating, Wheat: 15
[6]; [15]
  Plant response rating, Wheat: 35
[6]; [16]
  Plant response rating, Wheat: 45
[6]; [25]
  Plant response rating, Wheat: 45
[6]; [26]
  Plant response rating, Wheat: 0
[6]; [27]
  Plant response rating, Wheat: 15
[6]; [19]
  Plant response rating, Wheat: 40
[6]; [20]
  Plant response rating, Wheat: 50
[7]; [14]
  Plant response rating, Nutsedge, Yellow: 10
[7]; [15]
  Plant response rating, Nutsedge, Yellow: 10
[7]; [16]
  Plant response rating, Nutsedge, Yellow: 15
[7]; [25]
  Plant response rating, Nutsedge, Yellow: 20
[7]; [26]
  Plant response rating, Nutsedge, Yellow: 0
[7]; [27]
  Plant response rating, Nutsedge, Yellow: 0
[7]; [19]
  Plant response rating, Nutsedge, Yellow: 5
[7]; [20]
  Plant response rating, Nutsedge, Yellow: 10
[8]; [14]
  Plant response rating, Pigweed: 98
[8]; [15]
  Plant response rating, Pigweed: 98
[8]; [16]
  Plant response rating, Pigweed: 98
[8]; [25]
  Plant response rating, Pigweed: 98
[8]; [26]
  Plant response rating, Pigweed: 95
[8]; [27]
  Plant response rating, Pigweed: 98
[8]; [19]
  Plant response rating, Pigweed: 98
[8]; [20]
  Plant response rating, Pigweed: 98
[9]; [22]
  Plant response rating, Chickweed: 98
[9]; [23]
  Plant response rating, Chickweed: 98
[9]; [24]
  Plant response rating, Chickweed: 100
[9]; 250 g ai/ha, scale 0 to 100
  Plant response rating, Chickweed: 100
